Measured values as given in patent US11773399B2, “Methods and compositions for enhancing polypeptide production” (priority 2009, dated 2023).

Assays:
N. benthamiana plants [1] = assay: Transient chIL-12 expression after vacuum co-infiltration, anti-his Western blot and densitometry; assay type: in vivo
Description: Transient infiltration was done according Medrano et al (2009), with some modifications as follows. Briefly, an A. tumefaciens inoculum integrated with the binary vector pBIB-Kan encoding IL-12 was cultured under standard conditions for 2 days at 28° C. The bacterial cultures were centrifuged and resuspended to a final OD600 of 0.2-0.8, in 400 mL of a induction medium (“IM”; 0.5× Murashige and Skoog basal medium salts, 1× MS vitamins, 5% sucrose, 1× benzylaminopurine, 200 μM acetosyringone, pH 5.5). The cultures were incubated in 1M for ≥3 h at 28° C. Vacuum infiltration of 4-5-week-old N. benthamiana was accomplished by inverting a plant into a 400 mL glass beaker containing IM, ensuring that all leaves of the plant are immersed in the media. The beaker was placed in a vacuum desiccator unit (240-mm inner diameter) and using a vacuum pump, maximum pressure (˜25 in. Hg) was applied for 2 min and then quickly released. Additional plants were subject to infiltration using the same construct/antioxidant culture, or replaced with a new beaker of IM containing another construct/antioxidant culture. A single IM culture was used for infiltrating typically 3 but up to 10 independent plants with no adverse effect on the amount of transgene product expressed and presence of exogenously introduced antioxidant in planta respectively. Infiltrated plants were returned to the environmental chamber at conditions established previously during plant growth. In the case of both model transgene constructs, leaves were harvested from plants at 48 h post-infiltration and stored at −80° C. for subsequent analyses.
Vitamin E and vitamin K were solubilized in chloroform and kept on amber tube on ice. […]
(§1) Samples were resolved by SDS-PAGE (run under denaturing or reducing conditions) and Western immunoblotting analysis performed. […] Densitometry using the BIORAD® VERSDOC4000™ and QUANT-1® software package was employed and relative protein expression was determined in order to evaluate the effect of antioxidants on plant-made protein expression.

host plants = assay: Toxicity of infiltrated antioxidant to the host plant (necrosis); conditions: for toxicity to the plant: 100 μM
Description: Transient infiltration was done according Medrano et al (2009), with some modifications as follows. Briefly, an A. tumefaciens inoculum integrated with the binary vector pBIB-Kan encoding IL-12 was cultured under standard conditions for 2 days at 28° C. The bacterial cultures were centrifuged and resuspended to a final OD600 of 0.2-0.8, in 400 mL of a induction medium (“IM”; 0.5× Murashige and Skoog basal medium salts, 1× MS vitamins, 5% sucrose, 1× benzylaminopurine, 200 μM acetosyringone, pH 5.5). The cultures were incubated in 1M for ≥3 h at 28° C. Vacuum infiltration of 4-5-week-old N. benthamiana was accomplished by inverting a plant into a 400 mL glass beaker containing IM, ensuring that all leaves of the plant are immersed in the media. The beaker was placed in a vacuum desiccator unit (240-mm inner diameter) and using a vacuum pump, maximum pressure (˜25 in. Hg) was applied for 2 min and then quickly released. Additional plants were subject to infiltration using the same construct/antioxidant culture, or replaced with a new beaker of IM containing another construct/antioxidant culture. […] Infiltrated plants were returned to the environmental chamber at conditions established previously during plant growth. In the case of both model transgene constructs, leaves were harvested from plants at 48 h post-infiltration and stored at −80° C. for subsequent analyses.
(§2) Vitamin E and vitamin K were solubilized in chloroform and kept on amber tube on ice. The final concentration range of vitamins E and K tested were 5-100 μM.

N. benthamiana plants [2] = assay: Transient hIL-12 expression after vacuum co-infiltration, Western blot and densitometry; assay type: in vivo; conditions: for increase in hIL-12 expression (semi-quantitative densitometry): 20 mM AsA in induction medium, vs construct alone
Description: Transient infiltration was done according Medrano et al (2009), with some modifications as follows. Briefly, an A. tumefaciens inoculum integrated with the binary vector pBIB-Kan encoding IL-12 was cultured under standard conditions for 2 days at 28° C. The bacterial cultures were centrifuged and resuspended to a final OD600 of 0.2-0.8, in 400 mL of a induction medium (“IM”; 0.5× Murashige and Skoog basal medium salts, 1× MS vitamins, 5% sucrose, 1× benzylaminopurine, 200 μM acetosyringone, pH 5.5). The cultures were incubated in 1M for ≥3 h at 28° C. Vacuum infiltration of 4-5-week-old N. benthamiana was accomplished by inverting a plant into a 400 mL glass beaker containing IM, ensuring that all leaves of the plant are immersed in the media. The beaker was placed in a vacuum desiccator unit (240-mm inner diameter) and using a vacuum pump, maximum pressure (˜25 in. Hg) was applied for 2 min and then quickly released. Additional plants were subject to infiltration using the same construct/antioxidant culture, or replaced with a new beaker of IM containing another construct/antioxidant culture. A single IM culture was used for infiltrating typically 3 but up to 10 independent plants with no adverse effect on the amount of transgene product expressed and presence of exogenously introduced antioxidant in planta respectively. Infiltrated plants were returned to the environmental chamber at conditions established previously during plant growth. […]
as §2
(§3) Samples were resolved by SDS-PAGE (run under denaturing or reducing conditions) and Western immunoblotting analysis performed. For hIL-12 detection, primary antibody anti-human IL-12 (1:1000 v/v; R&D Systems) and secondary antibody anti-goat IgG-alkaline phosphatase conjugated (1:10,000 v/v; BIORAD®) was used. For chIL-12 detection, anti-6×His (C-term)-alkaline phosphatase conjugated (1:2000 v/v; Invitrogen) was used. Detection on immunoblots was carried out using the CDP-Star chemiluminescent substrate for alkaline phosphatase (Roche, Indianapolis, Ind.) and NitroBlock. Enhancer II (Tropix Inc., Bedford, Mass.) in accordance with manufacturers' procedures. Densitometry using the BIORAD® VERSDOC4000™ and QUANT-1® software package was employed and relative protein expression was determined in order to evaluate the effect of antioxidants on plant-made protein expression.

N. benthamiana leaves = assay: Recovery of purified hIL-12, heterodimer-specific hIL-12 ELISA; assay type: in vivo; conditions: 20 mM exogenously added AsA vs no antioxidant
Description: The amount of hIL-12 expressed in N. benthamiana leaves in the presence or absence of modified antioxidants levels during bioproduction was quantitated using a commercially available heterodimer-specific hIL-12 enzyme-linked immunoabsorbant assay (ELISA) (R&D Systems). To assay hIL-12, leaves were ground in PBS buffer (137 mM NaCl, 2.7 mM KCl, 10.1 mM Na2HPO4, and […] KH2PO4 pH 7.0) at a 1:2 (w/v) ratio and supernatant extracts were analyzed by the ELISA. For hIL-12 detection, the ELISA used monoclonal antibodies specific for hIL-12 p70 for capture (0.2 μg/mL) and biotinylated anti-human IL-12 antibody for detection (4 μg/mL). Streptavidin-HRP (1:200 v/v) was used for chemiluminescence and 3,3′,5,5′-tetramethylbenzidine (TMB; KPL) as a substrate for detection. Densitometry using the BIORAD® VERSDOC4000™ and QUANT-1® software package was employed and was established relative protein expression in order to evaluate the impact of antioxidants on its expression in plants.

[3] = system: transient system host plants; assay: Foliar ascorbate content of infiltrated host plants, ascorbate oxidase assay; assay type: in vivo, N. benthamiana; conditions: increasing infiltrated AsA
Description: Leaf tissue ground in the presence of liquid nitrogen with mortar/pestle was extracted. The foliar vitamin C content was determined by the ascorbate oxidase assay as previously described (Lorence et al., 2004). Briefly, tissue samples were harvested and immediately frozen in liquid nitrogen and stored at -80° C. till analysis. Samples were ground in 6% (w/v) meta-phosphoric acid, and centrifuged at 15,000×g for 10 min. Reduced vitamin C (a.k.a. ascorbate) was determined by measuring the decline in […] (extinction coefficient of 14.3 cm^-1 mM^-1) after addition of 1 unit of ascorbate oxidase (Sigma) to 1 mL of the reaction mix including tissue extract and 100 mM potassium phosphate (pH 6.9). […] Foliar ascorbate content was determined by a microplate reader-based method described herein. […] Reduced ascorbate was determined in a 300 μL reaction in triplicates by adding 275 μL of 0.1M of potassium phosphate buffer pH 6.9 into a 96-well plate (UV Flat Bottom Microplate, Thermo Scientific) containing 15 μL of sample supernatant. The mix was measured at […] and recorded. The decline in […] was measured after addition of 10 μL (1 U) of ascorbate oxidase (final concentration 0.0033 units of ascorbate oxidase, Sigma). […] The mix was measured at […] and recorded. […] […] was measure using a plate reader (model Power Wave XS, software KC Junior, Biotek).

Stable N. tabacum lines = assay: hIL-12 expression in stable transgenic lines after vacuum infiltration, Western blot; assay type: in vivo; conditions: AsA in IM media, leaves 24 and 48 h
Description: as §3
This finding further supports the concept that increasing the antioxidant capacity of the host plant enhances the overall biosynthesis of the plant in serving as a factory for recombinant protein production.

H2O2 in leaves = assay: In situ H2O2 detection in leaves, DAB staining; assay type: in vivo, N. benthamiana
Source text: Staining for H2O2 in leaves which correlates with the presence of reactive oxygen species (ROS) is detected by an endogenous peroxidase-dependent staining procedure, using 3,3-diaminobenzidine (DAB). This assay provides a comparative in situ measure of the ROS levels in planta (Thordal-Christensen et al., 1997).

[4] = system: plant transient bioproduction system; assay: Transient expression of a 94 kDa human glycoprotein, Western blot; assay type: in vivo; conditions: 20 mM co-infiltrated AsA, 72 hrs post-infiltration
Description: Transient infiltration was done according Medrano et al (2009), with some modifications as follows. Briefly, an A. tumefaciens inoculum integrated with the binary vector pBIB-Kan encoding IL-12 was cultured under standard conditions for 2 days at 28° C. The bacterial cultures were centrifuged and resuspended to a final OD600 of 0.2-0.8, in 400 mL of a induction medium (“IM”; 0.5× Murashige and Skoog basal medium salts, 1× MS vitamins, 5% sucrose, 1× benzylaminopurine, 200 μM acetosyringone, pH 5.5). The cultures were incubated in 1M for ≥3 h at 28° C. Vacuum infiltration of 4-5-week-old N. benthamiana was accomplished by inverting a plant into a 400 mL glass beaker containing IM, ensuring that all leaves of the plant are immersed in the media. The beaker was placed in a vacuum desiccator unit (240-mm inner diameter) and using a vacuum pump, maximum pressure (˜25 in. Hg) was applied for 2 min and then quickly released. […]
as §1

**Q.** What does the source list for vitamin E?
**A.** chIL12 protein production at higher concentrations (N. benthamiana plants [1]; 50-100 μM): reduced improvement in protein production; concentration with greatest impact in transient chIL12 protein expression (N. benthamiana plants [1]; dose-response 5-100 mM): 20 µM; toxicity to the plant (host plants): appeared to be toxic; transient hIL-12 expression (N. benthamiana plants [2]; vitamin E alone): no effect on expression

**Q.** For vitamin K, which “toxicity to the plant” value (host plants) is on record?
**A.** detrimental

**Q.** What does the source list for O=C1O[C@H]([C@@H](O)CO)C(O)=C1O [AsA, ascorbic acid]?
**A.** increase in chIL-12 protein expression (N. benthamiana plants [1]; 20 mM AsA, 48 h post-infiltration, on average): ~3 fold; effect on leaves/cells of host plants (host plants; 80 mM): began to show signs of necrosis; effect on leaves/cells of host plants (host plants; 80 mM, listed as vitamin C): detrimental; effect on leaves/cells of host plants (host plants; 100 mM): significant necrotic lesions; effect on leaves/cells of host plants (host plants; 100 mM, listed as vitamin C): detrimental; more purified hIL12 product recovered (ELISA) (N. benthamiana leaves): 20-25%; hIL-12 protein expression levels, dose response (N. benthamiana plants [2]; 0, 20, 40, 60 mM AsA): dose dependent increase; increase in hIL-12 expression (semi-quantitative densitometry) (N. benthamiana plants [2]): 25-30%; increase in hIL-12 expression (semi-quantitative densitometry) (N. benthamiana plants [2]; listed as vitamin C): ~25%; monomeric, single-chain hIL12 on Western blot (N. benthamiana plants [2]; 20 mM co-infiltrated AsA vs construct alone): significant increase; oligomer formation of hIL-12 (N. benthamiana plants [2]; 48 and 72 h post-infiltration, vs 0 mM AsA): abrogates oligomer formation of hIL-12; time hIL-12 is sustained in planta (N. benthamiana plants [2]; co-infiltrated AsA vs 0 mM AsA): up to 72 h; effective dose range for recombinant protein production (N. benthamiana plants [2]; plant transient infiltration system): 20 to 60 mM; in planta foliar AsA levels [3]: dose-dependent increase; hIL-12 protein levels in stable transgenic plants (Stable N. tabacum lines): increasing the overall expression of hIL-12 protein levels; H2O2 staining (DAB) (H2O2 in leaves; 80 mM AsA): some staining; H2O2 staining (DAB) (H2O2 in leaves; 100 mM AsA): clearly detectable; H2O2 staining (DAB) (H2O2 in leaves; 20 to 60 mM AsA): minimal; stable accumulation of 94 kDa human glycoprotein [4]: enhanced
